Patent US6335350B1, “Acetamide and substituted acetamide-containing thiourea inhibitors of herpes viruses” (American Home Products Corporation, priority 1998, dated 2002)
Converted amounts (≈) assume the structure as drawn. Read-outs that look alike come from different tables or passages of the source.

Key:
HCMV wild-type = assay: HCMV yield assay; assay type: cell-based, human cytomegalovirus; settings: for IC50: Human betaherpesvirus 5, Fibroblast, read-out: IC50 Ug/ml HCMV
How it was run: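 Value is the compound amount cutting virus yield titer by 50% (IC50) or 90% (IC90). Human foreskin fibroblasts infected with wild-type HCMV (MOI typically 0.2) under varying compound; progeny harvested day 3, titered compound-free on fibroblasts, plaques scored at 2 weeks.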

VZV strain Ellen = assay: VZV Antiviral (ELISA) Assay; assay type: cell-based, varicella-zoster virus; settings: human foreskin fibroblast cells; for IC50 / inhibition at 10 µg/mL: Human alphaherpesvirus 3, Fibroblast; for IC50: read-out: IC50 Ug/ml VZV; for inhibition at 10 µg/mL: read-out: % inhibition 10 ug/ml VZV, 10 ug/ml
How it was run: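 HFF cells infected overnight with VZV Ellen at MOI <0.1, mixed with uninfected cells, were seeded with compound and grown 3 days at 37° C in DMEM/2% FBS. Viral glycoprotein II was detected by ELISA with β-galactosidase-linked secondary; IC50 from fluorescence versus no-compound wells.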

HSV-1 = assay: HSV Antiviral (ELISA) Assay; assay type: cell-based, herpes simplex virus type 1; settings: for IC50: Human alphaherpesvirus 1, Vero, read-out: IC50 Ug/ml HSV
How it was run: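 Replication measured as glycoprotein D signal in fixed cells: anti-gD antibody plus β-galactosidase-linked secondary, fluorogenic substrate read at 365/450 nm. Vero cells (2% FBS DMEM) received compound 30 min pre-infection, HSV-1 MOI 0.006, ~24 h incubation; IC50 relative to no-compound fluorescence.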

| Structure (SMILES) | IC50 Ug/ml HSV (HSV-1; Vero cells, HSV-1) | IC50 (HSV-1; Vero cells, HSV-1) | IC50 Ug/ml HCMV (HCMV wild-type; human foreskin fibroblasts) | % inhibition 10 ug/ml VZV (VZV strain Ellen) | IC50 Ug/ml VZV (VZV strain Ellen) | IC50 (HCMV wild-type; human foreskin fibroblasts) | IC50 (VZV strain Ellen) | inhibition at 10 µg/mL (VZV strain Ellen) | IC50 (HCMV wild-type) | IC50 (HSV-1) |
| --- | --- | --- | --- | --- | --- | --- | --- | --- | --- | --- |
| CC(=O)Nc1ccc(NC(=S)Nc2ccc(NC(=O)CN3CCCCC3)c(Cl)c2)cc1 [Example 363, N-{4-[3-(4-Acetylamino-phenyl)-thioureido]-2-chloro-phenyl}-2-piperidin-1-yl-acetamide] |  | > 10 µg/mL |  |  |  | 7 µg/mL (≈ 15.2 µM) | > 10 µg/mL | 58% |  |  |
| CC(=O)Nc1ccc(NC(=S)Nc2ccc(NC(=O)CN3CCOCC3)c(Cl)c2)cc1 [Example 366, N-{4-[3-(4-Acetylamino-phenyl)-thioureido]-2-chloro-phenyl}-2-morpholin-4-yl-acetamide] |  | > 10 µg/mL |  |  |  | > 10 µg/mL | > 10 µg/mL | 16% |  |  |
| CC(=O)Nc1ccc(NC(=S)Nc2ccc(NC(=O)CSCCN(C)C)c(Cl)c2)cc1 [Example 372, N-{4-[3-(4-Acetylamino-phenyl)-thioureido]-2-chloro-phenyl}-2-(2-dimethylamino-ethylsulfanyl)-acetamide] |  | > 10 µg/mL |  |  |  | > 10 µg/mL | > 10 µg/mL | 53% |  |  |
| CCN(CC)CC(=O)Nc1ccc(NC(=S)Nc2ccc(NC(C)=O)cc2)cc1Cl [Example 412, N-{4-[3-(4-Acetylamino-phenyl)-thioureido]-2-chloro-phenyl}-2-diethyl-amino-acetamide] | >10 Ug/ml |  | >10 Ug/ml | 29% | >10 Ug/ml |  |  |  |  |  |
| CC(=O)Nc1ccc(NC(=S)Nc2ccccc2)cc1 [Example 814, N-[4-(3-Phenyl-thioureido)-phenyl]-acetamide] |  |  |  |  |  |  | > 10 µg/mL | 15% | > 10 µg/mL | > 10 µg/mL |
| CCCCOc1cc(OC)c(Cl)cc1NC(=S)Nc1ccc(NC(C)=O)cc1 [Example 833, N-{4-[3-(2-Butoxy-5-chloro-4-methoxy-phenyl)-thioureido]-phenyl}-acetamide] |  | 7 µg/mL (≈ 16.6 µM) |  |  |  | > 10 µg/mL | > 10 µg/mL | 54% |  |  |
| CCCCOc1cc(OC)c(NC(=S)Nc2ccc(NC(C)=O)cc2)cc1Cl [Example 834, N-{4-[3-(4-Butoxy-5-chloro-2-methoxy-phenyl)-thioureido]-phenyl}-acetamide] |  | 10 µg/mL (≈ 23.7 µM) |  |  |  | > 10 µg/mL | 15 µg/mL (≈ 35.5 µM) | 93% |  |  |
| CC(=O)Nc1ccc(NC(=S)Nc2ccc(N(C)C3CCN(C)CC3)c(Cl)c2)cc1 [Example 841, N-[4-(3-{3-Chloro-4-[methyl-(1-methyl-piperidin-4-yl)-amino]-phenyl}-thioureido)-phenyl]-acetamide] |  | > 50 µg/mL |  |  |  | 0.9 µg/mL (≈ 2.02 µM) | > 10 µg/mL | 30% |  |  |
| CC(=O)Nc1ccc(NC(=S)Nc2ccc(N(C)c3ccccc3)c(Cl)c2)cc1 [Example 842, N-(4-{3-[3-Chloro-4-(methyl-phenyl-amino)-phenyl]-thioureido}-phenyl)-acetamide] |  | > 10 µg/mL |  |  |  | 1.5 µg/mL (≈ 3.53 µM) | > 10 µg/mL | 33% |  |  |
| CC(=O)Nc1ccc(NC(=S)Nc2ccc(N(C)C3CCN(Cc4ccccc4)C3)c(Cl)c2)cc1 (stereo not shown) [Example 843, N-[4-(3-{4-[(1-Benzyl-pyrrolidin-3-yl)-methyl-amino]-3-chloro-phenyl}-thioureido)-phenyl]-acetamide] |  | 5 µg/mL (≈ 9.84 µM) |  |  |  | 0.7 µg/mL (≈ 1.38 µM) | > 10 µg/mL | 50% |  |  |
| CC(=O)Nc1ccc(NC(=S)Nc2ccc(N(C)C3CCCC3)c(Cl)c2)cc1 [Example 844, N-(4-{3-[3-Chloro-4-(cyclopentyl-methyl-amino)-phenyl]-thioureido}-phenyl)-acetamide] |  | 15 µg/mL (≈ 36 µM) |  |  |  | 0.8 µg/mL (≈ 1.92 µM) | > 10 µg/mL | 32% |  |  |
| CC(=O)Nc1ccc(NC(=S)Nc2ccc(N(C)C3CCN(C)C3)c(Cl)c2)cc1 (stereo not shown) [Example 845, N-[4-(3-{3-Chloro-4-[methyl-(1-methyl-pyrrolidin-3-yl)-amino]-phenyl}-thioureido)-phenyl]-acetamide] |  | 20 µg/mL (≈ 46.3 µM) |  |  |  | 1 µg/mL (≈ 2.31 µM) | > 10 µg/mL | 25% |  |  |

Now from value to compound, other results behind:

| IC50 Ug/ml HSV (HSV-1; Vero cells, HSV-1) | IC50 (HSV-1; Vero cells, HSV-1) | Structure (SMILES) | IC50 Ug/ml HCMV (HCMV wild-type; human foreskin fibroblasts) | % inhibition 10 ug/ml VZV (VZV strain Ellen) | IC50 Ug/ml VZV (VZV strain Ellen) | IC50 (HCMV wild-type; human foreskin fibroblasts) | IC50 (VZV strain Ellen) | inhibition at 10 µg/mL (VZV strain Ellen) | IC50 (HCMV wild-type) | IC50 (HSV-1) |
| --- | --- | --- | --- | --- | --- | --- | --- | --- | --- | --- |
| >10 Ug/ml |  | CC(=O)Nc1ccc(NC(=S)Nc2ccc(NC(=O)CN(C)C)c(Cl)c2)cc1 [Example 360, N-{4-[3-(4-Acetylamino-phenyl)-thioureido]-2-chloro-phenyl}-2-dimethyl-amino-acetamide] | >10 Ug/ml | 16% | >10 Ug/ml |  |  |  |  |  |
|  | > 10 µg/mL | CC(=O)Nc1ccc(NC(=S)Nc2ccc(NS(C)(=O)=O)c(Cl)c2)cc1 [Example 369, N-{4-[3-(3-Chloro-4-methanesulfonylamino-phenyl)-thioureido]-phenyl}-acetamide] |  |  |  | > 10 µg/mL | > 10 µg/mL | 0% |  |  |
|  | 3 µg/mL (≈ 8.67 µM) | C=Cc1ccc(NC(=S)Nc2ccc(NC(C)=O)cc2)cc1Cl [Example 377, N-{4-[3-(3-Chloro-4-vinyl-phenyl)-thioureido]-phenyl}-acetamide] |  |  |  | 0.8 µg/mL (≈ 2.31 µM) | > 10 µg/mL | 28% |  |  |
|  | > 10 µg/mL | COc1cc(OC)c(NC(=S)Nc2ccc(NC(C)=O)cc2C#N)cc1Cl [Example 383, N-{4-[3-(5-Chloro-2,4-dimethoxy-phenyl)-thioureido]-3-cyano-phenyl}-acetamide] |  |  |  | > 10 µg/mL | > 10 µg/mL | 38% |  |  |
|  | 20 µg/mL (≈ 62.5 µM) | CC(=O)Nc1ccc(NC(=S)Nc2cccc(Cl)c2)cc1 [Example 816, N-{4-[3-(3-Chloro-phenyl)-thioureido]-phenyl}-acetamide] |  |  |  | 25 µg/mL (≈ 78.2 µM) | > 10 µg/mL | 30% |  |  |
|  | 3 µg/mL (≈ 6.24 µM) | CCCCCC(=O)Nc1ccc(NC(=S)Nc2cc(Br)c(OC)cc2OC)cc1 [Example 826, Hexanoic acid {4-[3-(5-bromo-2,4-dimethoxy-phenyl)-thioureido]-phenyl}-amide] |  |  |  | > 10 µg/mL | > 10 µg/mL | 30% |  |  |
|  | 3 µg/mL (≈ 7.62 µM) | CCOc1cc(OC)c(Cl)cc1NC(=S)Nc1ccc(NC(C)=O)cc1 [Example 831, N-{4-[3-(5-Chloro-2-ethoxy-4-methoxy-phenyl)-thioureido]-phenyl}-acetamide] |  |  |  | > 10 µg/mL | > 10 µg/mL | 11% |  |  |
|  | 9 µg/mL (≈ 22.8 µM) | CCOc1cc(OC)c(NC(=S)Nc2ccc(NC(C)=O)cc2)cc1Cl [Example 832, N-{4-[3-(5-Chloro-4-ethoxy-2-methoxy-phenyl)-thioureido]-phenyl}-acetamide] |  |  |  | > 50 µg/mL | > 10 µg/mL | 15% |  |  |
|  | 8 µg/mL (≈ 17.5 µM) | COc1cc(OCc2ccccc2)c(NC(=S)Nc2ccc(NC(C)=O)cc2)cc1Cl [Example 835, N-{4-[3-(2-Benzyloxy-5-chloro-4-methoxy-phenyl)-thioureido]-phenyl}-acetamide] |  |  |  | > 10 µg/mL | > 10 µg/mL | 38% |  |  |
|  | 8 µg/mL (≈ 17.5 µM) | COc1cc(OCc2ccccc2)c(Cl)cc1NC(=S)Nc1ccc(NC(C)=O)cc1 [Example 836, N-{4-[3-(4-Benzyloxy-5-chloro-2-methoxy-phenyl)-thioureido]-phenyl}-acetamide] |  |  |  | > 10 µg/mL | 2.5 µg/mL (≈ 5.48 µM) | 92% |  |  |
|  | > 50 µg/mL | COc1cc(OCC(N)=O)c(Cl)cc1NC(=S)Nc1ccc(NC(C)=O)cc1 [Example 838, 2-{4-[3-(4-Acetylamino-phenyl)-thioureido]-2-chloro-5-methoxy-phenoxy}-acetamide] |  |  |  | > 10 µg/mL | > 10 µg/mL | 20% |  |  |
|  | 10 µg/mL (≈ 27.3 µM) | COc1cc(O)c(NC(=S)Nc2ccc(NC(C)=O)cc2)cc1Cl [Example 839, N-{4-[3-(5-Chloro-2-hydroxy-4-methoxy-phenyl)-thioureido]-phenyl}-acetamide] |  |  |  | 15 µg/mL (≈ 41 µM) | > 10 µg/mL | 17% |  |  |
|  | 1.5 µg/mL (≈ 4.1 µM) | CSc1ccc(NC(=S)Nc2ccc(NC(C)=O)cc2)cc1Cl [Example 840, N-{4-[3-(3-Chloro-4-methylsulfanyl-phenyl)-thioureido]-phenyl}-acetamide] |  |  |  | 0.4 µg/mL (≈ 1.09 µM) | > 10 µg/mL | 0% |  |  |
|  | > 10 µg/mL | CC(=O)Nc1ccc(NC(=S)Nc2ccc(C(C)O)c(Cl)c2)cc1 (stereo not shown) [Example 862, N-(4-{3-[3-Chloro-4-(1-hydroxy-ethyl)-phenyl]-thioureido}-phenyl)-acetamide] |  |  |  | 2 µg/mL (≈ 5.5 µM) | > 10 µg/mL | 10% |  |  |
|  | > 10 µg/mL | CC(=O)Nc1ccc(NC(=S)Nc2ccc(CCO)c(Cl)c2)cc1 [Example 864, N-(4-{3-[3-Chloro-4-(2-hydroxy-ethyl)-phenyl]-thioureido}-phenyl)-acetamide] |  |  |  | > 10 µg/mL | > 10 µg/mL | 21% |  |  |
| 10 Ug/ml |  | COc1c(NC(=S)Nc2ccc(NC(C)=O)cc2)cc(Cl)c(C)c1Cl [Example 876, N-{4-[3-(3,5-Dichloro-2-methoxy-4-methyl-phenyl)-thioureido]-phenyl}-acetamide] |  |  |  | 1 µg/mL (≈ 2.51 µM) | > 10 µg/mL | 58% |  |  |
